Laboratory results published in publication PMC12361428 (Nature Communications, 2025).
Positions count from the first letter of the chain named. Several values for one entry are separate records, joined by “and”; a condition that tells them apart may be missing. Equal entries are not always repeated. Entries after “also recorded” stand apart in the source; their conditions may differ.

How the values were obtained:
A3AR WT = target: T1, A3AR WT (Homo sapiens, UniProt P0DMS8); experiment: Gαi1 activation, TruPath BRET assay in HEK293a cells; format: cell-based
T1 construct: expressed in transfected cells; host or cells: HEK293a
T1 sequence (P0DMS8 1-318): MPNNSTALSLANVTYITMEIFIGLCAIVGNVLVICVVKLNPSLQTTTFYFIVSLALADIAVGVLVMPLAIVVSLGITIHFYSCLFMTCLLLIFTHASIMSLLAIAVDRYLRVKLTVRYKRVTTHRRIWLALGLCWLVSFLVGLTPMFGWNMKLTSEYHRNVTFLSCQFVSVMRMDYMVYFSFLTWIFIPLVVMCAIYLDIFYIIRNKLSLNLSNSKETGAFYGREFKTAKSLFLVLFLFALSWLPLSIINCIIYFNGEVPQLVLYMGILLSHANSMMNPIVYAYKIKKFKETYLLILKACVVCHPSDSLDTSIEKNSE
Method: (§1) PEI was added at a 6:1 PEI-to-DNA ratio. Two days post-transfection, plates were washed twice with BRET buffer (HBSS with 10 mM HEPES, pH 7.4). After a 30-min incubation at 37 °C, plates were placed in a PHERAstar plate reader at 37 °C, and four baseline readings were taken using BRET2 filters at 410 ± 80 nm and 515 ± 30 nm. […] BRET2 ratios were calculated as the ratio of GFP2 emission (515 ± 30 nm) to RLuc8 emission (410 ± 80 nm).
(§2) Data were expressed as the mean ± standard error. All binding and Trupath data were analysed using the nonlinear regression curve-fitting programme with Prism 10 (GraphPad, San Diego, CA, USA). For nanoBRET saturation binding experiments, specific binding was calculated by subtracting non-specific binding (defined as binding in the presence of 10 µM MRS1220) from total binding. Specific binding data in each experiment were then normalised to the maximal binding (Bmax) of WT and fit to a one-site specific binding equation: Y =Bmax*[X]/(Kd + [X]). For nanoBRET competition binding experiments, data were normalised to total and non-specific binding responses and fit to a one-site—Fit Ki equation. Trupath's experimental data was baseline-corrected to the initial four baseline reads and then adjusted to the buffer control response. The area under the curve (AUC) for each response was calculated and plotted with a non-linear regression curve (log[agonist] vs response, three-parameter model), using the equation: Y = Bottom + (Top–Bottom)/(1 + 10^((LogEC50-X))). Here, X represents the log dose of the agonist, Y is the BRET2 AUC response, Top and Bottom are the curve plateaus, and EC50 is the agonist concentration yielding a response halfway between the Bottom and Top values. To determine efficacy values. The efficacy of the agonists (τA) was separately calculated using the Black–Leff operational model of agonism[79] using KA values from Table 2 and then corrected for receptor expression relative to WT using Bmax values from Table 1[80]. Significant differences vs WT were determined by one-way ANOVA with a Dunnett’s multiple comparison test. Significance levels are indicated as follows: P ≤ 0.0001****, P = 0.0001–0.001***, P = 0.001–0.01**, and P = 0.01–0.05*.

A3AR M174A^5.35 = target: T2, A3AR M174A^5.35 (Homo sapiens, UniProt P0DMS8, M174A); experiment: as above; format: cell-based
T2 construct: expressed in transfected cells; host or cells: HEK293a
Method: (§3) Two days post-transfection, plates were washed twice with BRET buffer (HBSS with 10 mM HEPES, pH 7.4). After a 30-min incubation at 37 °C, plates were placed in a PHERAstar plate reader at 37 °C, and four baseline readings were taken using BRET2 filters at 410 ± 80 nm and 515 ± 30 nm. […] BRET2 ratios were calculated as the ratio of GFP2 emission (515 ± 30 nm) to RLuc8 emission (410 ± 80 nm).
(§4) Data were expressed as the mean ± standard error. All binding and Trupath data were analysed using the nonlinear regression curve-fitting programme with Prism 10 (GraphPad, San Diego, CA, USA). […] Trupath's experimental data was baseline-corrected to the initial four baseline reads and then adjusted to the buffer control response. The area under the curve (AUC) for each response was calculated and plotted with a non-linear regression curve (log[agonist] vs response, three-parameter model), using the equation: Y = Bottom + (Top–Bottom)/(1 + 10^((LogEC50-X))). Here, X represents the log dose of the agonist, Y is the BRET2 AUC response, Top and Bottom are the curve plateaus, and EC50 is the agonist concentration yielding a response halfway between the Bottom and Top values. […] Significant differences vs WT were determined by one-way ANOVA with a Dunnett’s multiple comparison test.

A3AR S271A^7.42 = A3AR S271A^7.42 (Homo sapiens, UniProt P0DMS8, S271A); experiment: as above
Method: as §3, §4

A3AR T94A^3.36 = target: T3, A3AR T94A^3.36 (Homo sapiens, UniProt P0DMS8, T94A); experiment: as above; format: cell-based
T3 construct: expressed in transfected cells; host or cells: HEK293a
Method: (§5) PEI was added at a 6:1 PEI-to-DNA ratio.
(§6) Data were expressed as the mean ± standard error. All binding and Trupath data were analysed using the nonlinear regression curve-fitting programme with Prism 10 (GraphPad, San Diego, CA, USA). For nanoBRET saturation binding experiments, specific binding was calculated by subtracting non-specific binding (defined as binding in the presence of 10 µM MRS1220) from total binding. Specific binding data in each experiment were then normalised to the maximal binding (Bmax) of WT and fit to a one-site specific binding equation: Y =Bmax*[X]/(Kd + [X]). For nanoBRET competition binding experiments, data were normalised to total and non-specific binding responses and fit to a one-site—Fit Ki equation. Trupath's experimental data was baseline-corrected to the initial four baseline reads and then adjusted to the buffer control response. The area under the curve (AUC) for each response was calculated and plotted with a non-linear regression curve (log[agonist] vs response, three-parameter model), using the equation: Y = Bottom + (Top–Bottom)/(1 + 10^((LogEC50-X))). […] Significant differences vs WT were determined by one-way ANOVA with a Dunnett’s multiple comparison test. […]

A3AR H272A^7.43 = target: T4, A3AR H272A^7.43 (Homo sapiens, UniProt P0DMS8, H272A); experiment: as above; format: cell-based
T4 construct: expressed in transfected cells; host or cells: HEK293a
T4 sequence (P0DMS8 1-318 H272A): T1 sequence (P0DMS8 1-318) with H272A
Method: as §1, §2

A3AR Y265A^7.36 = target: T5, A3AR Y265A^7.36 (Homo sapiens, UniProt P0DMS8, Y265A); experiment: as above; format: cell-based
T5 construct: expressed in transfected cells; host or cells: HEK293a
Method: as §5, §6

A3AR V169E^45.53 = target: T6, A3AR V169E^45.53 (Homo sapiens, UniProt P0DMS8, V169E); experiment: as above; format: cell-based
T6 construct: expressed in transfected cells; host or cells: HEK293a
Method: as §3, §4

A3AR S73A^2.65 = target: T7, A3AR S73A^2.65 (Homo sapiens, UniProt P0DMS8, S73A); experiment: as above; format: cell-based
T7 construct: expressed in transfected cells; host or cells: HEK293a
Method: as §3, §4

A3AR H95A^3.37 = A3AR H95A^3.37 (Homo sapiens, UniProt P0DMS8, H95A); experiment: as above
Method: as §3, §4

A3AR Y15A^1.35 = target: T8, A3AR Y15A^1.35 (Homo sapiens, UniProt P0DMS8, Y15A); experiment: as above; format: cell-based
T8 construct: expressed in transfected cells; host or cells: HEK293a
T8 sequence (P0DMS8 1-318 Y15A): T1 sequence (P0DMS8 1-318) with Y15A
Method: as §1, §2

A3AR-BRIL-S97R = target: T9, A3AR-BRIL-S97R (Homo sapiens, UniProt P0DMS8, N160A/S97R, form not given); experiment: NanoBRET competition binding vs XAC-630; details: for XAC-630 NanoBRET binding, normalised (Figure S2H), individual replicates: A3AR-BRIL-S97R
T9 sequence (P0DMS8 1-318 S97R/N160A): T1 sequence (P0DMS8 1-318) with S97R, N160A

[1] = test system: Nluc-tagged hA3AR-BRIL-S97R; experiment: NanoBRET washout (irreversible binding) assay vs XAC-630

T2 sequence (P0DMS8 whole entry M174A): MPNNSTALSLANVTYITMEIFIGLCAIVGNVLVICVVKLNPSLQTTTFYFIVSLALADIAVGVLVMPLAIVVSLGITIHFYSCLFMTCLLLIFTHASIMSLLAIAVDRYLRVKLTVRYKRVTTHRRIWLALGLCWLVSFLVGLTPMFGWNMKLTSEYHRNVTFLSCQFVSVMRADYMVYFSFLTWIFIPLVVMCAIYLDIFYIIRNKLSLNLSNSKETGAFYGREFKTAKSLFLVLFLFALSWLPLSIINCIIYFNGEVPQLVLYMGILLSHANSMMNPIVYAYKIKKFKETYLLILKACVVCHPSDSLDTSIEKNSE
T3 sequence (P0DMS8 whole entry T94A): as the sequence (P0DMS8 whole entry M174A) above, with T94A, A174M counted along it
T6 sequence (P0DMS8 whole entry V169E): as the sequence (P0DMS8 whole entry M174A) above, with V169E, A174M counted along it
T7 sequence (P0DMS8 whole entry S73A): as the sequence (P0DMS8 whole entry M174A) above, with S73A, A174M counted along it
Chain of A3AR H95A^3.37 (P0DMS8 whole entry H95A): as the sequence (P0DMS8 whole entry M174A) above, with H95A, A174M counted along it
T5 sequence (P0DMS8 whole entry Y265A): as the sequence (P0DMS8 whole entry M174A) above, with A174M, Y265A counted along it
Chain of A3AR S271A^7.42 (P0DMS8 whole entry S271A): as the sequence (P0DMS8 whole entry M174A) above, with A174M, S271A counted along it

## Nc1ncnc2c1ncn2[C@@H]1O[C@H](CO)[C@@H](O)[C@H]1O [Adenosine, adenosine]
A3AR WT
  log τ (efficacy, operational model, corrected for receptor expression): 1.6 ± 0.2
  ∆∆BRET Emax: 0.89 ± 0.08
A3AR WT; log [agonist] -3
  Gαi1 activation response (Figure 7F), individual replicates: 1.106 and 0.8834 and 0.9675
A3AR WT; log [agonist] -4
  Gαi1 activation response (Figure 7F), individual replicates: 0.9524 and 0.7958 and 0.9068
A3AR WT; log [agonist] -5
  Gαi1 activation response (Figure 7F), individual replicates: 0.9676 and 0.6508 and 0.8035
A3AR WT; log [agonist] -6
  Gαi1 activation response (Figure 7F), individual replicates: 0.8382 and 0.5159 and 0.6976
A3AR WT; log [agonist] -7
  Gαi1 activation response (Figure 7F), individual replicates: 0.312 and 0.3966 and 0.3849
A3AR WT; log [agonist] -8
  Gαi1 activation response (Figure 7F), individual replicates: 0.0509 and 0.08839 and 0.07483
A3AR WT; log [agonist] -9
  Gαi1 activation response (Figure 7F), individual replicates: 0.1 and 0.05123 and 0.04435
A3AR M174A^5.35
  log τ (efficacy, operational model, corrected for receptor expression): -0.1 ± 0.2
  ∆∆BRET Emax: 1.35 ± 0.01
A3AR S271A^7.42
  ∆∆BRET Emax: 0.70 ± 0.15
A3AR T94A^3.36
  log τ (efficacy, operational model, corrected for receptor expression): 0.8 ± 0.09
  ∆∆BRET Emax: 0.49 ± 0.04
A3AR H272A^7.43
  log τ (efficacy, operational model, corrected for receptor expression): N.R.
  ∆∆BRET Emax: N.R
A3AR H272A^7.43; log [agonist] -3
  Gαi1 activation response (Figure 7F), individual replicates: 0.105 and 0.09941
A3AR H272A^7.43; log [agonist] -4
  Gαi1 activation response (Figure 7F), individual replicates: 0.06736 and 0.02567 and 0.03084
A3AR H272A^7.43; log [agonist] -5
  Gαi1 activation response (Figure 7F), individual replicates: 0.05631 and 0.02851 and 0.01939
A3AR H272A^7.43; log [agonist] -6
  Gαi1 activation response (Figure 7F), individual replicates: 0.03915 and 0.06464 and 0.04347
A3AR H272A^7.43; log [agonist] -7
  Gαi1 activation response (Figure 7F), individual replicates: 0.04202 and 0.01796 and 0.03024
A3AR H272A^7.43; log [agonist] -8
  Gαi1 activation response (Figure 7F), individual replicates: 0.03672 and 0.03614 and 0.07396
A3AR H272A^7.43; log [agonist] -9
  Gαi1 activation response (Figure 7F), individual replicates: 0.03473 and 0.04344 and 0.05169
A3AR Y265A^7.36
  log τ (efficacy, operational model, corrected for receptor expression): 1.4 ± 0.07
  ∆∆BRET Emax: 1.25 ± 0.04
A3AR V169E^45.53
  log τ (efficacy, operational model, corrected for receptor expression): 1.6 ± 0.1
  ∆∆BRET Emax: 0.67 ± 0.02
A3AR S73A^2.65
  log τ (efficacy, operational model, corrected for receptor expression): 1.4 ± 0.07
  ∆∆BRET Emax: 1.49 ± 0.04
A3AR H95A^3.37
  log τ (efficacy, operational model, corrected for receptor expression): 0.3 ± 0.3
  ∆∆BRET Emax: 0.63 ± 0.12
A3AR Y15A^1.35
  log τ (efficacy, operational model, corrected for receptor expression): 0.6 ± 0.3
  ∆∆BRET Emax: 0.19 ± 0.02
A3AR Y15A^1.35; log [agonist] -3
  Gαi1 activation response (Figure 7F), individual replicates: 0.171 and 0.1858 and 0.1817
A3AR Y15A^1.35; log [agonist] -4
  Gαi1 activation response (Figure 7F), individual replicates: 0.1266 and 0.1086 and 0.09084
A3AR Y15A^1.35; log [agonist] -5
  Gαi1 activation response (Figure 7F), individual replicates: 0.08727 and 0.0349 and 0.02463
A3AR Y15A^1.35; log [agonist] -6
  Gαi1 activation response (Figure 7F), individual replicates: 0.02891 and 0.02444 and 0.02972
A3AR Y15A^1.35; log [agonist] -7
  Gαi1 activation response (Figure 7F), individual replicates: 0.01513 and 0.03836 and 0.02349
A3AR Y15A^1.35; log [agonist] -8
  Gαi1 activation response (Figure 7F), individual replicates: 0.0199 and 0.02219 and 0.02387
A3AR Y15A^1.35; log [agonist] -9
  Gαi1 activation response (Figure 7F), individual replicates: 0.02702 and 0.04406 and 0.02415

## CCCn1c(=O)c2c(nc3cc(OC)ccn32)n(CCCCNC(=O)c2ccc(S(=O)(=O)F)cc2)c1=O [LUF7602]
A3AR-BRIL-S97R; BRIL-S97R, n 3
  pKi Mean (Figure S2H): 7.024
A3AR-BRIL-S97R; log LUF7602 -5
  XAC-630 NanoBRET binding, normalised (Figure S2H), individual replicates: 0
A3AR-BRIL-S97R; log LUF7602 -6
  XAC-630 NanoBRET binding, normalised (Figure S2H), individual replicates: 19.3899 and 25.983 and 15.2236
A3AR-BRIL-S97R; log LUF7602 -7
  XAC-630 NanoBRET binding, normalised (Figure S2H), individual replicates: 80.7723 and 57.132 and 87.3086
A3AR-BRIL-S97R; log LUF7602 -8
  XAC-630 NanoBRET binding, normalised (Figure S2H), individual replicates: 99.2468 and 73.5169 and 111.113
A3AR-BRIL-S97R; log LUF7602 -9
  XAC-630 NanoBRET binding, normalised (Figure S2H), individual replicates: 98.8814 and 81.6512 and 110.04
A3AR-BRIL-S97R; log LUF7602 -10
  XAC-630 NanoBRET binding, normalised (Figure S2H), individual replicates: 102.286 and 79.8771 and 109.058
[1]; 10 μM, 4 h, 4 washing steps
  inhibition of XAC-630 binding after 4x washout: wash-resistant inhibition; also recorded: retained inhibition
  rebinding of XAC-630 in the washout experiments: ~ 15%
[1]; 4 x Wash
  NanoBRET washout assay, normalised signal (Figure S2G), individual replicates: 12.3969 and 12.724 and 15.9645 and 7.178
[1]; Control (no wash)
  NanoBRET washout assay, normalised signal (Figure S2G), individual replicates: 1.693 and 0.891 and -0.3357 and 2.202
